Several values for one entry are separate records, joined by “and”; a condition that tells them apart may be missing. Equal values may be shown once.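 Five compound concentrations were applied to cells in 96-well plates for 48 hours; endpoints were derived by simple linear interpolation of the resulting dose-response curve. Abbreviation: GI50, concentration required for 50% inhibition of growth. TGI marks complete inhibition of growth.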

The first test relates to COLO 205 colon. The experiment in a line: inhibition of tumour cell growth, NCI panel, 48 h.
Consider `CCOc1cccc(/C=N/NC(=O)c2ccccc2Nc2ccnc(C(F)(F)F)c2)c1O`, for which the GI50 was 0.347 µM and the TGI was 36.9 µM.

`CCOC(=O)/C=C(/C(=O)OCC)n1cc(Cl)c(=O)n(CC(=O)OCC)c1=O`: the GI50 was 1.32 µM; the TGI is 2.81 µM and 2.59 µM.

For `CC1=C(C(=O)Nc2ccc3[nH]ncc3c2)C(c2ccc3ccccc3c2)CC(=O)N1` (configuration not stated), the GI50 is 9.96 µM and the TGI is greater than 21.2 µM.

For `CC1OC(O[C@H]2C[C@@H](O)[C@]3(CO)[C@H]4[C@H](O)C[C@]5(C)[C@@H](C6=CC(=O)OC6)CC[C@]5(O)[C@@H]4CC[C@]3(O)C2)C(O)C(O)C1O` (some centres not stated), the GI50 is 18.5 µM and the TGI was determined as 33.7 µM.

Take `O=C1/C(=C/c2ccc(Br)cc2)C=C(c2ccccc2)N1CCc1ccccc1`: the GI50 was 3.26 µM and the TGI worked out at 27.5 µM.

Take `CSc1ccc(C2=NN(C(C)=O)C(c3cc(C)cs3)C2)cc1` (configuration not stated): the GI50 is 17.3 µM and the TGI stood at 35.8 µM.

As to `COc1cccc(-c2cc(=O)c3cc(N(C)C)ccc3[nH]2)c1`, the GI50 is 0.0283 µM and 0.0125 µM; the TGI was 0.0875 µM and 0.0317 µM.

As to `CCCCC(=O)OCC1OC(n2cnc3c(=S)nc[nH]c32)C(OC(=O)CCCC)C1OC(=O)CCCC` (configuration not stated), the GI50 was 1.37 µM and the TGI amounted to 5.18 µM.

Consider `O=c1oc2ccc(F)cc2c(=O)n1-c1ccc(F)cc1F`, for which the GI50 was 3.56 µM and the TGI worked out at 12.5 µM.

`O=C(O)CCCCC(CCSCc1ccccc1)SCc1ccccc1` (configuration not stated): the GI50 is greater than 92.3 µM and the TGI was greater than 100 µM.

As for `CC1=C(CCCNS(C)(=O)=O)C2=C(C)C3(CC3)[C@@](C)(O)C(=O)C2=C1`, the GI50 was 0.853 µM and the TGI is 2.69 µM.

For the molecule `N#Cc1ccc(C#Cc2ccccc2C#CCCCCO)cc1`, the GI50 is 18.1 µM and the TGI came out at 34.3 µM.

Take `O=NN(Cc1ccc(Cl)cc1)C(C(=O)O)c1ccccc1` (configuration not stated): the TGI was greater than 100 µM.

Another test relates to SNB-19 CNS. The experiment in a line: inhibition of tumour cell growth, NCI panel, 48 h.
For `CCOc1cccc(/C=N/NC(=O)c2ccccc2Nc2ccnc(C(F)(F)F)c2)c1O`, the GI50 was 2.04 µM and the TGI was greater than 100 µM.

`CCOC(=O)/C=C(/C(=O)OCC)n1cc(Cl)c(=O)n(CC(=O)OCC)c1=O`: the GI50 was 32.7 µM and the TGI was greater than 100 µM.

As to `CC1=C(C(=O)Nc2ccc3[nH]ncc3c2)C(c2ccc3ccccc3c2)CC(=O)N1` (configuration not stated), the GI50 is greater than 25 µM and the TGI was greater than 25 µM.

`CC1OC(O[C@H]2C[C@@H](O)[C@]3(CO)[C@H]4[C@H](O)C[C@]5(C)[C@@H](C6=CC(=O)OC6)CC[C@]5(O)[C@@H]4CC[C@]3(O)C2)C(O)C(O)C1O` (some centres not stated): the GI50 was 18.3 µM and the TGI turned out to be 33.6 µM.

For the molecule `O=C1/C(=C/c2ccc(Br)cc2)C=C(c2ccccc2)N1CCc1ccccc1`, the GI50 was 1.21 µM and the TGI is 5.03 µM.

For the molecule `CSc1ccc(C2=NN(C(C)=O)C(c3cc(C)cs3)C2)cc1` (configuration not stated), the GI50 is 37 µM and the TGI was greater than 100 µM.

`COc1cccc(-c2cc(=O)c3cc(N(C)C)ccc3[nH]2)c1`: the TGI was 0.825 µM and 0.843 µM.

On to `CCCCC(=O)OCC1OC(n2cnc3c(=S)nc[nH]c32)C(OC(=O)CCCC)C1OC(=O)CCCC` (configuration not stated), for which the GI50 was 17.9 µM and the TGI was greater than 100 µM.

For the molecule `O=c1oc2ccc(F)cc2c(=O)n1-c1ccc(F)cc1F`, the GI50 is 3.5 µM and the TGI was greater than 100 µM.

For `O=C(O)CCCCC(CCSCc1ccccc1)SCc1ccccc1` (configuration not stated), the GI50 is 42.9 µM and the TGI is greater than 100 µM.

With `CC1=C(CCCNS(C)(=O)=O)C2=C(C)C3(CC3)[C@@](C)(O)C(=O)C2=C1`, the GI50 was 1.93 µM and the TGI is greater than 100 µM.

Regarding `N#Cc1ccc(C#Cc2ccccc2C#CCCCCO)cc1`, the GI50 is 15.8 µM and the TGI was 29.9 µM.

`O=NN(Cc1ccc(Cl)cc1)C(C(=O)O)c1ccccc1` (configuration not stated) registered a TGI greater than 100 µM.

For another test, the system named is PC-3 prostate. The test is described as follows: inhibition of tumour cell growth, NCI panel, 48 h.
Regarding `CCOc1cccc(/C=N/NC(=O)c2ccccc2Nc2ccnc(C(F)(F)F)c2)c1O`, the GI50 was 428 nM and the TGI was greater than 39.1 µM.

For the molecule `CCOC(=O)/C=C(/C(=O)OCC)n1cc(Cl)c(=O)n(CC(=O)OCC)c1=O`, the GI50 is 19500 nM; the TGI is 9.64 µM and 34.6 µM.

With `CC1=C(C(=O)Nc2ccc3[nH]ncc3c2)C(c2ccc3ccccc3c2)CC(=O)N1` (configuration not stated), the GI50 was greater than 25000 nM and the TGI is greater than 25 µM.

On to `CC1OC(O[C@H]2C[C@@H](O)[C@]3(CO)[C@H]4[C@H](O)C[C@]5(C)[C@@H](C6=CC(=O)OC6)CC[C@]5(O)[C@@H]4CC[C@]3(O)C2)C(O)C(O)C1O` (some centres not stated), for which the GI50 was 20400 nM and the TGI worked out at 41.4 µM.

Turning to `O=C1/C(=C/c2ccc(Br)cc2)C=C(c2ccccc2)N1CCc1ccccc1`, the GI50 was 1200 nM and the TGI was found to be 5.06 µM.

As for `CSc1ccc(C2=NN(C(C)=O)C(c3cc(C)cs3)C2)cc1` (configuration not stated), the GI50 is 20200 nM and the TGI stood at 95.6 µM.

Consider `COc1cccc(-c2cc(=O)c3cc(N(C)C)ccc3[nH]2)c1`, for which the GI50 is 27.5 nM and 8.06 nM; the TGI was greater than 100 µM.

Take `CCCCC(=O)OCC1OC(n2cnc3c(=S)nc[nH]c32)C(OC(=O)CCCC)C1OC(=O)CCCC` (configuration not stated): the GI50 was 2210 nM and the TGI was greater than 100 µM.

On to `O=c1oc2ccc(F)cc2c(=O)n1-c1ccc(F)cc1F`, for which the GI50 is 2810 nM and the TGI was 10.1 µM.

With `O=C(O)CCCCC(CCSCc1ccccc1)SCc1ccccc1` (configuration not stated), the GI50 is 49100 nM and the TGI is greater than 100 µM.

With `CC1=C(CCCNS(C)(=O)=O)C2=C(C)C3(CC3)[C@@](C)(O)C(=O)C2=C1`, the GI50 is 1680 nM and the TGI was greater than 100 µM.

`N#Cc1ccc(C#Cc2ccccc2C#CCCCCO)cc1`: the GI50 was 15600 nM and the TGI amounted to 28.9 µM.

`O=NN(Cc1ccc(Cl)cc1)C(C(=O)O)c1ccccc1` (configuration not stated) showed a TGI greater than 100 µM.

For a further test, the system named is CCRF-CEM leukemia. The experiment in a line: inhibition of tumour cell growth, NCI panel, 48 h.
For the molecule `CCOc1cccc(/C=N/NC(=O)c2ccccc2Nc2ccnc(C(F)(F)F)c2)c1O`, the GI50 is 0.136 µM and the TGI was greater than 31.4 µM.

`CCOC(=O)/C=C(/C(=O)OCC)n1cc(Cl)c(=O)n(CC(=O)OCC)c1=O`: the GI50 was 2.12 µM; the TGI is 1.13 µM and 5.65 µM.

On to `CC1=C(C(=O)Nc2ccc3[nH]ncc3c2)C(c2ccc3ccccc3c2)CC(=O)N1` (configuration not stated), for which the GI50 is greater than 25 µM and the TGI was greater than 25 µM.

In the case of `CC1OC(O[C@H]2C[C@@H](O)[C@]3(CO)[C@H]4[C@H](O)C[C@]5(C)[C@@H](C6=CC(=O)OC6)CC[C@]5(O)[C@@H]4CC[C@]3(O)C2)C(O)C(O)C1O` (some centres not stated), the TGI is 52.5 µM.

On to `O=C1/C(=C/c2ccc(Br)cc2)C=C(c2ccccc2)N1CCc1ccccc1`, for which the GI50 was 7.76 µM and the TGI was greater than 100 µM.

Regarding `CSc1ccc(C2=NN(C(C)=O)C(c3cc(C)cs3)C2)cc1` (configuration not stated), the GI50 was 26.7 µM and the TGI is greater than 100 µM.

Turning to `COc1cccc(-c2cc(=O)c3cc(N(C)C)ccc3[nH]2)c1`, the GI50 was 0.0135 µM and 0.00524 µM.

Consider `CCCCC(=O)OCC1OC(n2cnc3c(=S)nc[nH]c32)C(OC(=O)CCCC)C1OC(=O)CCCC` (configuration not stated), for which the GI50 is 3.25 µM and the TGI is greater than 100 µM.

As to `O=c1oc2ccc(F)cc2c(=O)n1-c1ccc(F)cc1F`, the GI50 was 3.95 µM and the TGI came to 67.4 µM.

Consider `O=C(O)CCCCC(CCSCc1ccccc1)SCc1ccccc1` (configuration not stated), for which the GI50 was 37 µM and the TGI was greater than 100 µM.

Regarding `CC1=C(CCCNS(C)(=O)=O)C2=C(C)C3(CC3)[C@@](C)(O)C(=O)C2=C1`, the GI50 was 44.1 µM and the TGI was greater than 100 µM.

Regarding `N#Cc1ccc(C#Cc2ccccc2C#CCCCCO)cc1`, the GI50 was 14.8 µM and the TGI worked out at 29.1 µM.

For the molecule `O=NN(Cc1ccc(Cl)cc1)C(C(=O)O)c1ccccc1` (configuration not stated), the TGI was greater than 100 µM.

The subject of the next test is HL-60(TB) leukemia. The test is described as follows: inhibition of tumour cell growth, NCI panel, 48 h.
For `CCOc1cccc(/C=N/NC(=O)c2ccccc2Nc2ccnc(C(F)(F)F)c2)c1O`, the GI50 is 0.253 µM and the TGI was found to be 0.621 µM.

On to `CCOC(=O)/C=C(/C(=O)OCC)n1cc(Cl)c(=O)n(CC(=O)OCC)c1=O`, for which the GI50 was 11.2 µM; the TGI is 9.97 µM and 37.2 µM.

On to `CC1=C(C(=O)Nc2ccc3[nH]ncc3c2)C(c2ccc3ccccc3c2)CC(=O)N1` (configuration not stated), for which the GI50 is greater than 25 µM and the TGI is greater than 25 µM.

Turning to `CC1OC(O[C@H]2C[C@@H](O)[C@]3(CO)[C@H]4[C@H](O)C[C@]5(C)[C@@H](C6=CC(=O)OC6)CC[C@]5(O)[C@@H]4CC[C@]3(O)C2)C(O)C(O)C1O` (some centres not stated), the GI50 was 21 µM and the TGI was found to be 41.6 µM.

In the case of `O=C1/C(=C/c2ccc(Br)cc2)C=C(c2ccccc2)N1CCc1ccccc1`, the GI50 is 75.1 µM and the TGI was greater than 100 µM.

For the molecule `CSc1ccc(C2=NN(C(C)=O)C(c3cc(C)cs3)C2)cc1` (configuration not stated), the GI50 was 11.8 µM and the TGI is 29.8 µM.

For `COc1cccc(-c2cc(=O)c3cc(N(C)C)ccc3[nH]2)c1`, the GI50 was 0.0111 µM and 0.00264 µM; the TGI was 0.0621 µM and 0.00853 µM.

Turning to `CCCCC(=O)OCC1OC(n2cnc3c(=S)nc[nH]c32)C(OC(=O)CCCC)C1OC(=O)CCCC` (configuration not stated), the GI50 was 3.55 µM and the TGI was greater than 100 µM.

Consider `O=c1oc2ccc(F)cc2c(=O)n1-c1ccc(F)cc1F`, for which the GI50 is 2.68 µM and the TGI came out at 7.81 µM.

On to `O=C(O)CCCCC(CCSCc1ccccc1)SCc1ccccc1` (configuration not stated), for which the GI50 is 46.9 µM and the TGI was greater than 100 µM.

Take `CC1=C(CCCNS(C)(=O)=O)C2=C(C)C3(CC3)[C@@](C)(O)C(=O)C2=C1`: the GI50 was 1.98 µM and the TGI is greater than 24 µM.

Turning to `N#Cc1ccc(C#Cc2ccccc2C#CCCCCO)cc1`, the GI50 was 23.7 µM and the TGI is 45.6 µM.

`O=NN(Cc1ccc(Cl)cc1)C(C(=O)O)c1ccccc1` (configuration not stated): the TGI is greater than 100 µM.

The record behind these values is PubChem BioAssay (NCI).
